Reference: paper PMC12686126, “LL‐37 Inhibits TMPRSS2‐Mediated S2' Site Cleavage and SARS‐CoV‐2 Infection but Not Omicron Variants” (Cell Proliferation, 2025)
“Also recorded” adds a separate entry of the source. Counter-ions that a name gives are not always drawn.

What was measured:
[1] = test system: SARS‐CoV‐2 spike pseudovirus; format: cell-based
TMPRSS2 = TMPRSS2 activity measurement; format: cell-based, human; conditions: 293T‐T2 cells, 2 h at 37°C; Boc‐Phe‐Ser‐Arg‐MCA 100 μM, fluorescence 360/460 nm; LL‐37 0–20 μg/mL, CM and E64d 0–100 μM
Experimental: 293T‐T2 cells (5 × 10^4/well) in a black 96‐well flat‐bottom plate were treated for 2 h at 37°C with LL‐37 (0, 1, 5, 10, 20 μg/mL), camostat mesylate (0, 0.1, 0.5, 1, 5, 10, 50, 100 μM, MedChemExpress), or E64d (0, 0.1, 0.5, 1, 5, 10, 50, 100 μM, MedChemExpress). The peptide and inhibitors were prepared with DMEM free of FBS. To measure the proteolytic activity of TMPRSS2, the medium was replaced with 100 μL of DMEM free of FBS and phenol red and containing 100 μM of Boc‐Phe‐Ser‐Arg‐MCA (Peptide, Japan). The fluorescence intensity was measured after 2 h of incubation at 37°C using a microplate reader (Biotek, USA). The excitation/emission wavelengths were 360/460 nm. The values were expressed as a percent of fluorescence intensity relative to the control. Camostat mesylate and E64d were used as the positive and negative controls respectively. All procedures were carried out in the dark.

SARS‐CoV‐2 = conditions: cited from earlier work
Beta spike pseudovirus = format: cell-based, SARS‐CoV‐2 Beta
Delta spike pseudovirus = format: cell-based, SARS‐CoV‐2 Delta
BA.1 spike pseudovirus = format: cell-based, SARS‐CoV‐2 Omicron BA.1
BA.2 spike pseudovirus = format: cell-based, SARS‐CoV‐2 Omicron BA.2
[2] = test system: BA.2.12.1 spike pseudovirus; format: cell-based, SARS‐CoV‐2 Omicron BA.2.12.1
BA.3 spike pseudovirus = format: cell-based, SARS‐CoV‐2 Omicron BA.3
BA.4/5 spike pseudovirus = format: cell-based, SARS‐CoV‐2 Omicron BA.4/5
[3] = test system: SARS‐CoV‐2 spike pseudovirus; format: cell-based; remark: listed apart in the source
[4] = test system: SARS‐CoV‐2 spike pseudovirus; format: cell-based; remark: listed apart in the source
[5] = test system: SARS‐CoV‐2 spike pseudovirus (S1 and S2 subunits) attached to 293T‐A2 cells; format: cell-based
[6] = test system: BA.1 spike pseudovirus (S1 and S2 subunits) attached to 293T‐A2 cells; format: cell-based, SARS‐CoV‐2 Omicron BA.1
[7] = test system: BA.4/5 spike pseudovirus (S1 and S2 subunits) attached to 293T‐A2 cells; format: cell-based, SARS‐CoV‐2 Omicron BA.4/5
SARS‐CoV‐2 spike [8] = format: cell-based
Delta spike = format: cell-based, SARS‐CoV‐2 Delta
BA.1 spike = format: cell-based, SARS‐CoV‐2 Omicron BA.1
BA.4/5 spike [9] = format: cell-based, SARS‐CoV‐2 Omicron BA.4/5
[10] = test system: SARS‐CoV‐2 spike S2 subunit; format: binding; conditions: pH 9.6
S2 subunit of BA.1 spike = format: binding, SARS‐CoV‐2 Omicron BA.1
[11] = test system: SARS‐CoV‐2 spike S1 and S2 subunits; format: binding
[12] = test system: 293T‐A2 and 293T‐Mock cell membranes; format: cell-based; conditions: 293T-A2 vs 293T-Mock cells treated 2 h with LL-37; western blot (Figure S4A)
[13] = test system: SARS‐CoV‐2 spike S2 subunit; format: cell-based
Delta spike S2 subunit = format: cell-based, SARS‐CoV‐2 Delta
BA.1 spike S2 subunit = format: cell-based, SARS‐CoV‐2 Omicron BA.1
BA.4/5 spike S2 subunit = format: cell-based, SARS‐CoV‐2 Omicron BA.4/5
SARS‐CoV‐2 spike [14] = test system: SARS‐CoV‐2 spike; parameters: species or system mouse (BALB/c); conditions: mouse, in vivo
SARS‐CoV‐2 spike [15] = test system: SARS‐CoV‐2 spike; parameters: species or system mouse (BALB/c); conditions: mouse, in vivo; remark: listed apart in the source
BA.4/5 spike [16] = test system: BA.4/5 spike; parameters: species or system mouse (BALB/c); conditions: mouse, in vivo
BA.4/5 spike [17] = test system: BA.4/5 spike; parameters: species or system mouse (BALB/c); conditions: mouse, in vivo; remark: listed apart in the source
[18] = no reference given; cited from earlier work
[19] = test system: receptor binding domain (RBD) of spike S1 and the ACE2 receptor; conditions: by binding to the RBD and/or ACE2; ref [36], [37], [41], [42]; cited from earlier work
[20] = ref [44]; cited from earlier work
TLR3, TLR7, or TLR9 = conditions: binds DNA/RNA, elevates type I interferon response; ref [63], [64]; cited from earlier work
FPRL‐1 and CXCR2 = conditions: receptors involved in chemotaxis of monocytes, neutrophils and lymphocytes; ref [65], [66]; cited from earlier work
FPR‐2 receptor = conditions: leading to immunosuppression; ref [67], [68]; cited from earlier work
[21] = test system: NF‐kB p50 and p65 subunits; conditions: leading to immunosuppression; ref [67], [68]; cited from earlier work

CN(C)C(=O)COC(=O)Cc1ccc(OC(=O)c2ccc(NC(=N)N)cc2)cc1 [CM, camostat mesylate, reference compound]
reduction of pseudovirus‐induced RLU [1]: about 60%
suppression of cellular TMPRSS2 activity (TMPRSS2): suppressed cellular TMPRSS2 activity at sub‐micromolar concentrations
antiviral activity against SARS‐CoV‐2 (SARS‐CoV‐2): shows antiviral activity against SARS‐CoV‐2

CNC(=O)[C@@H](NC(=O)[C@H](CC(C)C)[C@H](O)C(=O)NO)C(C)(C)C [marimastat, reference compound]
reduction of pseudovirus‐induced RLU [1]: ~25%
inhibition of SARS‐CoV‐2‐induced membrane fusion (SARS‐CoV‐2): inhibitory activity against SARS‐CoV‐2‐induced membrane fusion at sub‐micromolar levels

LLGDFFRKSKEKIGKEFKRIVQRIKDFLRNLVPRTES [LL‐37]
inhibition of pseudovirus entry (Beta spike pseudovirus): significantly inhibit
inhibition of pseudovirus entry (Delta spike pseudovirus): significantly inhibit
inhibition of pseudovirus entry (BA.1 spike pseudovirus): inhibitory effects were compromised
inhibition of pseudovirus entry (BA.2 spike pseudovirus): inhibitory effects were compromised
inhibition of pseudovirus entry [2]: inhibitory effects were compromised
inhibition of pseudovirus entry (BA.3 spike pseudovirus): inhibitory effects were compromised
inhibition of pseudovirus entry (BA.4/5 spike pseudovirus): inhibitory effects were compromised
prevention of pseudovirus entry [3]: prevented; also recorded: not if added 2 h post infection (hpi) and 4 hpi
reduction of RLU caused by LL‐37 with endosomal inhibitor [4]: no significant difference
plasma membrane‐attached spike (S1 and S2 subunits) [5]: equal quantity
plasma membrane‐attached spike (S1 and S2 subunits) [6]: equal quantity
plasma membrane‐attached spike (S1 and S2 subunits) [7]: equal quantity
inhibition of cell–cell fusion (SARS‐CoV‐2 spike [8]): inhibited
inhibition of fusion, pretreatment vs treatment during infection (SARS‐CoV‐2 spike [8]; 10 μg/mL): stronger inhibition of fusion than treatment during infection
inhibition of cell–cell fusion (Delta spike): inhibited
inhibition of fusion, pretreatment vs treatment during infection (Delta spike; 10 μg/mL): stronger inhibition of fusion than treatment during infection
inhibition of cell–cell fusion (BA.1 spike): compromised inhibition
inhibition of cell–cell fusion (BA.4/5 spike [9]): compromised inhibition
binding of S2 subunit to immobilised LL‐37 [10]: much stronger binding
binding of S2 subunit to immobilised LL‐37 (S2 subunit of BA.1 spike): much lower binding
spike subunit bound to plasma membrane facilitated by LL‐37 [11]: S2 subunit rather than the S1 subunit
spike subunits bridged by LL‐37 to plasma membranes [11]: bridged more S2 subunits than S1 subunits
LL‐37 attachment to cell membrane [12]: could attach to the cell membrane independent of the ACE2 expression
generation of S2' fragment [13]: remarkably reduced
generation of S2' fragment (Delta spike S2 subunit): consistent result with that of SARS‐CoV‐2
generation of S2' fragment (BA.1 spike S2 subunit): did not significantly reduce
generation of S2' fragment (BA.4/5 spike S2 subunit): did not significantly reduce
suppression of cellular TMPRSS2 activity (TMPRSS2): not LL‐37 or E64d suppressed
IgM responses and titers (SARS‐CoV‐2 spike [14]): elevated IgM responses and titers
IgG responses (SARS‐CoV‐2 spike [15]): enhanced
IgG responses and titers (SARS‐CoV‐2 spike [15]): no significant difference
IgM responses and titers (BA.4/5 spike [16]): no difference and low levels to background
IgG responses and titers (BA.4/5 spike [17]): no difference and low levels to background
overall positive net charge [18]: +6
block of RBD–ACE2 interaction [19]: block the interaction
attachment to lipid bilayer [20]: can attach to lipid bilayer via the C‐terminal VPRTES tail
effect on TLR signalling (TLR3, TLR7, or TLR9): augment signalling via TLR3, TLR7, or TLR9
receptor binding (FPRL‐1 and CXCR2): directly bind with receptors such as FPRL‐1 and CXCR2
receptor interaction (FPR‐2 receptor): interact with the FPR‐2 receptor
prevention of NF‐kB translocation [21]: prevent the translocation of NF‐kB p50 and p65 subunits

α1‐antitrypsin
inhibition of SARS‐CoV‐2 entry and replication (SARS‐CoV‐2): high inhibition

KRKSFDGFKELILKGRQEIKFKRDIFLVNLRETRPSV [KR‐37, reference compound]
inhibition of cell–cell fusion (SARS‐CoV‐2 spike [8]): showed no inhibition
inhibition of cell–cell fusion (Delta spike): showed no inhibition
inhibition of cell–cell fusion (BA.1 spike): showed no inhibition
inhibition of cell–cell fusion (BA.4/5 spike [9]): showed no inhibition

O=C(CC1NCCCC1O)Cn1cnc2cc(Br)c(Cl)cc2c1=O (stereo not shown) [halofuginone]
inhibition of SARS‐CoV‐2 entry and replication (SARS‐CoV‐2): high inhibition

COC(=O)C[C@](O)(CCCC(C)(C)O)C(=O)O[C@@H]1C(OC)=C[C@]23CCCN2CCc2cc4c(cc2[C@H]13)OCO4 [homoharringtonine]
inhibition of SARS‐CoV‐2 entry and replication (SARS‐CoV‐2): high inhibition
